Experimental data taken from US20160024062A1, “ISOXAZOLINE DERIVATIVES FOR CONTROLLING INVERTEBRATE PESTS” (NOVARTIS TIERGESUNDHEIT AG, priority 2011, published 2016).

How the values were obtained:
[1] = system: Rhipicephalus sanquineus nymphs; assay: Activity in vivo against Rhipicephalus sanquineus nymphs on Mongolian gerbils (spray application); settings: engorged nymphs counted seven days after infestation, vs placebo (Abbot's formula)
Procedure: On day 0, gerbils are treated with the test compound at a given dose by spray application. On day +1 (+2), the animals are infested with nymphs of R. sanguineus. Ticks are left on the animals until full repletion. Seven days after infestation nymphs dropped off fully engorged are collected and counted. Efficacy in killing is expressed as a tick number reduction in comparison with a placebo treated group, using the Abbot's formula.

[2] = system: Ctenocephalides felis (cat flea); assay: Activity in vivo against Ctenocephalides felis (cat flea) on Mongolian gerbils (per oral application); settings: dose 3.2 mg/kg, oral gavage, live fleas counted 48 h after infestation, vs placebo (Abbot's formula)
Procedure: On day 0, gerbils are treated orally by gavage with the test compound formulated at a given dose. Immediately after treatment, they are infested with a mixed adult population of cat fleas. Evaluation of efficacy is performed 48 h infestation by counting the numbers of live fleas recovered from the gerbils. Efficacy is expressed as comparison with a placebo treated group using the Abbot's formula.

[3] = system: Ctenocephalides felis (cat flea); assay: Activity in vivo against Ctenocephalides felis (cat flea) on Mongolian gerbils (spray application); settings: live fleas counted 24 h and 48 h after infestation, vs placebo (Abbot's formula)
Procedure: On day 0, gerbils are treated with the test compound at a given dose by spray application. On day +1, the animals are infested with a mixed adult population of cat fleas. Evaluation of efficacy is performed 24 h and 48 h infestation by counting the numbers of live fleas recovered from the gerbils. Efficacy is expressed as comparison with a placebo treated group using the Abbot's formula.

**Q.** Which results are given for `Cc1oc(C2=NOC(c3cc(Cl)cc(Cl)c3)(C(F)(F)F)C2)cc1C(=O)NCC(=O)NCC(F)(F)F` (stereo not drawn) [Compound 1.19, 5-(5-(3,5-dichlorophenyl)-5-(trifluoromethyl)-4,5-dihydroisoxazol-3-yl)-2-methyl-N-(2-oxo-2-((2,2,2-trifluoroethyl)amino)ethyl)furan-3-carboxamide]?
**A.** Efficacy in killing % ([1]; dose 10 mg/kg): 100%; Efficacy in killing % [2]: 99%; Efficacy in killing % ([3]; dose 10 mg/kg): 94%; melting point: 172 to 174 °C

**Q.** Which results are given for `Cc1sc(C2=NOC(c3cc(Cl)cc(Cl)c3)(C(F)(F)F)C2)cc1C(=O)NCC(=O)NCC#N` (stereo not drawn) [Compound 1.32, N-(2-((cyanomethyl)amino)-2-oxoethyl)-5-(5-(3,5-dichlorophenyl)-5-(trifluoromethyl)-4,5-dihydroisoxazol-3-yl)-2-methylthiophene-3-carboxamide]?
**A.** Efficacy in killing % ([1]; dose 100 mg/kg): 85%; Efficacy in killing % ([3]; dose 32 mg/kg): 96%
